# Data from patent publication US20170333391A1, “METHOD FOR DELAYING THE ONSET OF PULMONARY FIBROSIS OR TREATING PULMONARY FIBROSIS” (EVERFRONT BIOTECH INC., priority 2016, published 2017).
# Experiments:
# Type in all cases: cell-based, human
# α-SMA = α-SMA mRNA expression in NHLF, Q-PCR (3-2); settings: 24 hours
# Procedure: Normal Human lung fibroblasts (NHLF) were seeded into 6-well plate at a density of 10^5 cells/well, comprising a control group and five experimental groups (6 wells in total). The cells were cultured until the next day, and then the mediums were removed. Each group was respectively treated under the following conditions to conduct follow-up experiments: • (1) Control group: cells were cultured in a FGM-2 medium containing 1% serum for 24 hours; • (2) Group α: cells were cultured in a FGM-2 medium containing 1% serum and compound (1) (5 μg/ml) for 24 hours; • (3) Group β: cells were cultured in a FGM-2 medium containing 1% serum and compound (1) (10 μg/ml) for 24 hours; • (4) Group γ: cells were cultured in a F-12K medium containing 1% serum and H2O2 (0.1 mM) for 24 hours; • (5) Group δ: cells were cultured in a F-12K medium containing 1% serum, H2O2 (0.1 mM) and compound (1) (5 μg/ml) for 24 hours; and • (6) Group ε: cells were cultured in a F-12K medium containing 1% serum, H2O2 (0.1 mM) and compound (1) (10 μg/ml) for 24 hours.
# Thereafter, the total RNA of cells taken from each group were extracted, and then reverse transcription was conducted on the total RNA by using a QuantiTect Reverse Transcription Kit to obtain cDNA therefrom. A Q-PCR was then conducted on the cDNA to analyze the mRNA expression levels of genes such as α-SMA and TGF-β, wherein GAPDH gene served as an internal control. The results of the control group served as the basis for calculating the relative expression levels of the other groups.
# TGF-β protein = TGF-β protein expression in TGF-β1-induced NHLF, western blotting (Example 4); settings: uninduced control = 1, TGF-β1-only group A = 1.75
# Procedure: (§1) Normal Human lung fibroblasts (NHLF) were seeded into 6 cm culture dishes at a density of 2×10^5 cells/dish, comprising a control group and five experimental groups (6 dishes in total). The cells were cultured until the next day, and then the mediums were removed. Each group was respectively treated under the following conditions to conduct follow-up experiments: • (1) Control group: cells were cultured in a FGM-2 medium containing 1% serum for 36 hours; • (2) Group A: cells were cultured in a FGM-2 medium containing 1% serum and TGF-β1 (5 ng/ml) for 36 hours; • (3) Group B: cells were firstly cultured in a FGM-2 medium containing 1% serum and TGF-β1 (5 ng/ml) for 12 hours, and then compound (1) was added into the medium to provide a final concentration of 15 μg/ml; thereafter, the cells were cultured for another 24 hours; • (4) Group C: cells were firstly cultured in a FGM-2 medium containing 1% serum and TGF-β1 (5 ng/ml) for 12 hours, and then compound (1) was added into the medium to provide a final concentration of 30 μg/ml; thereafter, the cells were cultured for another 24 hours; • (5) Group D: cells were firstly cultured in a FGM-2 medium containing 1% serum and TGF-β1 (5 ng/ml) for 12 hours, and then compound (2) was added into the medium to provide a final concentration of 100 μg/ml; thereafter, the cells were cultured for another 24 hours; and • (6) Group E: cells were firstly cultured in a FGM-2 medium containing 1% serum and TGF-β1 (5 ng/ml) for 12 hours, and then compound (2) was added into the medium to provide a final concentration of 200 μg/ml; thereafter, the cells were cultured for another 24 hours.
# (§2) Thereafter, the proteins in the cells of each group were extracted, and the expressions of BMP-7 protein, TGF-β protein and p-smad2/3 protein in the NHLF cells of each group were measured with western blotting. The results of the control group served as the basis for calculating the relative expression levels of the other groups.
# p-smad2/3 protein = p-smad2/3 protein expression in TGF-β1-induced NHLF, western blotting (Example 4); settings: uninduced control = 1, TGF-β1-only group A = 1.42
# Procedure: as §1, §2
# [1] = Group B: TGF-β1 5 ng/ml 12 h, then compound (1) 15 μg/ml 24 h
# [2] = Group C: TGF-β1 5 ng/ml 12 h, then compound (1) 30 μg/ml 24 h
structure (smiles),measurement,setting,value
CCCC=C1OC(=O)c2ccccc21 [compound (1)],Relative expression level (fold) α-SMA,"α-SMA; Group α: mRNA, FGM-2 medium 1% serum + compound (1) 5 μg/ml, control group = 1",0.46 fold
same,Relative expression level (fold) α-SMA,"α-SMA; Group β: mRNA, FGM-2 medium 1% serum + compound (1) 10 μg/ml, control group = 1",0.64 fold
same,Relative expression level (fold) α-SMA,"α-SMA; Group δ: mRNA, F-12K medium 1% serum + H2O2 0.1 mM + compound (1) 5 μg/ml, control group = 1, H2O2-only group γ = 0.92",0.56 fold
same,Relative expression level (fold) α-SMA,"α-SMA; Group ε: mRNA, F-12K medium 1% serum + H2O2 0.1 mM + compound (1) 10 μg/ml, control group = 1, H2O2-only group γ = 0.92",0.37 fold
same,Relative expression level (fold) TGF-β protein,TGF-β protein; [1],1.27 fold
same,Relative expression level (fold) TGF-β protein,TGF-β protein; [2],1.34 fold
same,Relative expression level (fold) p-smad2/3 protein,p-smad2/3 protein; [1],0.82 fold
same,Relative expression level (fold) p-smad2/3 protein,p-smad2/3 protein; [2],1.08 fold
